US6545002B1 (University of Virginia Patent Foundation, priority 1999, dated 2003)

Assays:
[1] = tested on: myocardial infarction in dogs; experiment: Ninety minute LAD coronary artery occlusion/reperfusion, infarct size by TTC staining; type: in vivo, dog; settings: 200 nM intracoronary at 1 ml/min during occlusion and reperfusion, versus vehicle
[2] = target: T1, rat A2A receptors (rA2A) (Rattus norvegicus, UniProt P30543); experiment: Displacement of [3H]CGS 21680 binding in rat striatal membranes; settings: Table 2; read-out: rA2A Ki or IC50
T1 construct: to A2A receptors from rat striatal membranes was performed as described; from tissue; host or cells: rat striatal membranes
T1 sequence (P30543 whole entry): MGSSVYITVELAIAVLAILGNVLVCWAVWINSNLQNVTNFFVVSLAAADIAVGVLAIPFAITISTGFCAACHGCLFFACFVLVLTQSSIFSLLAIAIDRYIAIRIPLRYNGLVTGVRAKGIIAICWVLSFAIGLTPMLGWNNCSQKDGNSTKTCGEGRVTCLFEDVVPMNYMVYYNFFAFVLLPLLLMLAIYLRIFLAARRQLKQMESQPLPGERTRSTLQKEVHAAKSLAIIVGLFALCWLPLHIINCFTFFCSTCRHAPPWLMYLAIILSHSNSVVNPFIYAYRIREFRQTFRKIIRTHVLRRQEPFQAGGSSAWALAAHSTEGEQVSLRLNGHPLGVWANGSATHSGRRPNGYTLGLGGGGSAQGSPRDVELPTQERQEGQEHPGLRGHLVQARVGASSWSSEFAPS

[3] = target: T2, rat A1 receptors (rA1) (Rattus norvegicus, UniProt P25099); experiment: Displacement of [3H]R-PIA binding in rat brain (cerebral cortical) membranes; settings: Table 2; read-out: rA1 Ki or IC50
T2 construct: to A1 receptors from rat cerebral cortical membranes; from tissue; host or cells: rat cerebral cortical (brain) membranes
T2 sequence (P25099 1-326): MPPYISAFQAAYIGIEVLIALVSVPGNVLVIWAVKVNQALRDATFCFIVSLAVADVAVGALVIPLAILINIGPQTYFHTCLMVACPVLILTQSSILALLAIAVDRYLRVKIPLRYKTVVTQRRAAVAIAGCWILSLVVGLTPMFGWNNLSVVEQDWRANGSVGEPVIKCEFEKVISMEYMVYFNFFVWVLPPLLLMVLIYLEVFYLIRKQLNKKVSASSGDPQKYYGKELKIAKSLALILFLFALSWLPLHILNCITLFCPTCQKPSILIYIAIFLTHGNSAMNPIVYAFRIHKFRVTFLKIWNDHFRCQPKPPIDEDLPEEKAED

Ki [2]: 612 ± 287 nM
Ki [3]: 16.8 ± 3.6 nM
Compound: CCCn1c(=O)c2[nH]c(-c3ccc(OCC(=O)Nc4ccc(C#N)cc4)cc3)nc2n(CCC)c1=O [Compound 27, 8-[4-[((4-Cyano)phenylcarbamoylmethyl)oxy]phenyl]-1,3-di-(n-propyl)xanthine]
infarct size / infarct area (IA) as %LV or %RA [1]: significantly reduced the infarct area
